Test [1] in a line: Addition of flavor active peptide to unflavored cheese sauce, evaluation of imparted flavor. To be noted: 0.015% (w/w based) peptide added to unflavored cheese sauce of Table 1. Here is the method: Addition of the Gly-Pro-Phe-Pro-Ile (SEQ ID NO:2) peptide to the unflavored cheese sauce listed in Table 1 was carried out to evaluate the flavor imparted by the flavor active peptide. The cheese sauce formulation can be described as having a mild, Monterey Jack cheese sauce flavor with some salty and savory notes.

Test [2] in a line: Addition of flavor active peptide to seasoned microwave popcorn, evaluation of imparted flavor. To be noted: approximately 0.1% peptide in popped microwave popcorn with White Cheddar Snack Seasoning (Table 3). The procedure: Addition of the Gly-Pro-Phe-Pro-Ile (SEQ ID NO:2) peptide to the base microwave popcorn listed in Table 2 was carried out to evaluate the flavor imparted by the flavor active peptide.
The sodium content of the resulting seasoned popcorn was 596.6 mg Na^+/1 oz serving.

Regarding “Gly-Pro-Phe-Pro-Ile (GPFPI) [Gly-Pro-Phe-Pro-Ile (SEQ ID NO:2)]”, the “flavor imparted by the flavor active peptide” value was “made the sauce taste more salty, creamy and dairy” in test [1]; “imparted an increase in cheesyness, mouthfeel, and some umami character” in test [2].
